In US20240024403A1, “Compositions and Methods for Managing Weight” (Unigen, Inc., priority 2012, published 2024):
Entries after “also recorded” stand apart in the source; their conditions may differ.

Assay: High fat diet induced obesity (DIO) mouse model
Assay type: in vivo, C57CL/6J mice
Design: NSAH (sum) [NASH score]: scale not given here
Conditions: for Total Body Weight / Body Weight: in g (unit assumed)
Procedure: C57CL/6J mice aged 4-6 weeks (Korea Research Institute of Bioscience & Biotechnology, Ohchang, Korea) were housed in Polycarbonate cages (five mice per cage) in a room with a 12 hr:12 hr light-dark cycle and an ambient temperature of 24° C. All the mice were fed a commercial chow diet for 1 week after arrival in the animal facility. Mice were then divided into normal and obesity groups and fed with normal diet (ND) and high fat diets (HFD) respectively. The HFD group was divided into multiple treatment groups: a high fat diet vehicle group (HFD), an orlistat (purchased as OTC drug Alli®) positive control treatment group (ORI, 40 mg/kg of animal weight, 2 times/day) and optionally a sibutramine positive control treatment group (10 mg/kg, 1 time/day). The HFD contained 340 g of fat/kg of HFD (310 g lard plus 30 g soybean oil; Harlan Laboratories, USA). The HFD was formulated to provide 60% of the total energy generated by the diet from fat by replacing carbohydrate energy with lard and soybean oil, whereas the normal diet (ND) group was fed a diet providing only 18% of the total diet energy from fat(Harlan Laboratories, USA).
Body weight was measured once each week and feed intake was measured twice per week. At the end of the experimental period, following a 12 hr. fasting period, the animals were anesthetized with ether, and blood was drawn from the abdominal vein. Liver and kidney and adipose tissues (epididymal, retroperitoneal, perirenal adipose tissues) were removed from each animal, rinsed with physiological saline, and weighed. Serum concentrations of glucose, total cholesterol, triglycerides, and LDL-cholesterol were determined using automatic analyzer (INTEGRA 400, Roche, Germany). Statistical significance of test results was measured using the Student's t-test.

[1] = mice fed a high fat diet, Mutamba fractions 250 mg/kg oral 2 times per day, mean
[2] = orlistat 40 mg/Kg/day oral, 8 weeks
[3] = orlistat 40 mg/kg oral, 7 weeks
[4] = orlistat 40 mg/kg, 2 times/day, listed as orlistat
[5] = score 0-3, orlistat 40 mg/kg oral
[6] = week 1, DIO mice, oral twice daily, mg/kg/day: ORI 40, Combo (Composition 1A) 800, Magnolia 100, Yerba Mate 500, Morus 200
[7] = week 1, DIO mice, combination (5:1) 1200 mg/kg twice a day by gavage, group mean
[8] = week 1, mice fed a high fat diet, Mutamba fractions 250 mg/kg oral 2 times per day, mean
[9] = week 2, DIO mice, oral twice daily, mg/kg/day: ORI 40, Combo (Composition 1A) 800, Magnolia 100, Yerba Mate 500, Morus 200
[10] = week 2, DIO mice, combination (5:1) 1200 mg/kg twice a day by gavage, group mean
[11] = week 2, mice fed a high fat diet, Mutamba fractions 250 mg/kg oral 2 times per day, mean
[12] = week 3, DIO mice, oral twice daily, mg/kg/day: ORI 40, Combo (Composition 1A) 800, Magnolia 100, Yerba Mate 500, Morus 200

CCCCCCCCCCC[C@@H](C[C@@H]1OC(=O)[C@H]1CCCCCC)OC(=O)[C@H](CC(C)C)NC=O [ORI, orlistat]
FER (Food efficiency ratio) (mice fed a high fat diet, FER = body weight gain (g/day)/food intake (g/day), Mutamba fractions 250 mg/kg oral 2 times per day, mean): 0.034
Body Weight Gain [1]: 0.093 g/day
Food Intake [1]: 2.769 g/day
Absolute Organ Weight: Epididymal Fat [2]: 2.03 g
Absolute Organ Weight: Liver [2]: 1.19 g
Absolute Organ Weight: PeriRenal Fat [2]: 0.29 g
Absolute Organ Weight: Retroperitoneal Fat [2]: 0.5 g
Absolute Organ Weight: Total Fat (sum of three fat pads) [2]: 2.82 g
Food Efficiency Ratio (FER) [2]: −0.001
Food Intake (average) [2]: 3.147 g/day
Relative Organ Weight: Epididymal Fat [2]: 0.05
Relative Organ Weight: Liver [2]: 0.03
Relative Organ Weight: PeriRenal Fat [2]: 0.01
Relative Organ Weight: Retroperitoneal Fat [2]: 0.01
Relative Organ Weight: Total Fat [2]: 0.07
Weight Gain (average) [2]: -0.004 g/day
Food Efficiency Ratio (FER) [3]: 0.000
Food Intake (average per day) [3]: 3.195 g/day
Weight Gain (average per day) [3]: 0.000 g/day
blood biochemistry parameters vs HFD group (orlistat 40 mg/kg, 2 times/day): statistically significant decrease in LDL-cholesterol; also recorded: statistically significant decreases in total cholesterol, LDL-cholesterol, and fasting glucose; also recorded: statistically significant decreases in ALT and LDL-cholesterol; also recorded: statistically significant decrease in ALT
body weight gain vs HFD group (orlistat 40 mg/kg, 2 times/day): greatest change in weight gain between week 2 and week 3; also recorded: statistically significant decreases in body weight gains each week after the first week of treatment; also recorded: statistically significant decreases in body weight gain across all weeks of the study; also recorded: statistically significant decreases in body weight gain from week 1 through to week 7; also recorded: statistically significant decreases in weight gain from week 1 through to week 8
body weight gain vs HFD group [4]: significant reduction in body weight gain at 7 weeks
weight gain per day, food intake per day, food efficiency ratio (FER) vs HFD group [4]: significantly reduced FER
Liver pathology: Hepatocellular ballooning (0-2) (score 0-2, orlistat 40 mg/kg oral): 0.67
Liver pathology: Lobular Inflammation (0-3) [5]: 1.33
Liver pathology: Steatosis (0-3) [5]: 0.67
NSAH (sum) [NASH score] (sum of scores, orlistat 40 mg/kg oral): 2.67
Total Body Weight (week 0, DIO mice, oral twice daily, mg/kg/day: ORI 40, Combo (Composition 1A) 800, Magnolia 100, Yerba Mate 500, Morus 200): 40.22
Total Body Weight (week 0, DIO mice, combination (5:1) 1200 mg/kg twice a day by gavage, group mean): 38.40
Total Body Weight (week 0, ORI 40 mg/kg, DIO mice (Table 52)): 39.96
Total Body Weight (week 0, ORI 40 mg/kg, DIO mice): 42.76
Body Weight (week 0, mice fed a high fat diet, Mutamba fractions 250 mg/kg oral 2 times per day, mean): 39.76
Weight Gain [6]: −2.24
Total Body Weight [6]: 37.98
Body Weight Gain (week 1, DIO mice, SIB 10 mg/kg, ORI 40 mg/kg, Mutamba extract 32 (G1) 1000 mg/kg/day oral, mean): −2.59
Body Weight Gain (week 1, DIO mice, SIB 10 mg/kg, ORI 40 mg/kg, Mutamba extract 33-2 G1 1000 mg/kg, mean): −3.05
Weight Gain (week 1, DIO mice, combination (1:1) 2000 mg/kg twice a day, group mean): −3.20
Weight Gain [7]: −3.20
Total Body Weight [7]: 35.20
Total Body Weight (week 1, ORI 40 mg/kg, DIO mice (Table 52)): 37.37
Total Body Weight (week 1, ORI 40 mg/kg, DIO mice): 38.73
Body Weight Gain (week 1, ORI 40 mg/kg, mice fed high fat diet): −4.00
Body Weight Gain [8]: −3.05
Body Weight [8]: 36.71
Weight Gain (week 1, orlistat 40 mg/kg oral): −5.43
Weight Gain [9]: −6.14
Total Body Weight [9]: 34.08
Body Weight Gain (week 2, DIO mice, SIB 10 mg/kg, ORI 40 mg/kg, Mutamba extract 32 (G1) 1000 mg/kg/day oral, mean): −2.90
Body Weight Gain (week 2, DIO mice, SIB 10 mg/kg, ORI 40 mg/kg, Mutamba extract 33-2 G1 1000 mg/kg, mean): −2.81
Weight Gain (week 2, DIO mice, combination (1:1) 2000 mg/kg twice a day, group mean): −4.88
Weight Gain [10]: −4.88
Total Body Weight [10]: 33.58
Total Body Weight (week 2, ORI 40 mg/kg, DIO mice (Table 52)): 37.05
Total Body Weight (week 2, ORI 40 mg/kg, DIO mice): 35.09
Body Weight Gain (week 2, ORI 40 mg/kg, mice fed high fat diet): −7.38
Body Weight Gain [11]: −2.81
Body Weight [11]: 36.95
Weight Gain (week 2, orlistat 40 mg/kg oral): −6.69
Weight Gain [12]: −4.91
Total Body Weight [12]: 35.32
Body Weight Gain (week 3, DIO mice, SIB 10 mg/kg, ORI 40 mg/kg, Mutamba extract 32 (G1) 1000 mg/kg/day oral, mean): −2.55
Body Weight Gain (week 3, DIO mice, SIB 10 mg/kg, ORI 40 mg/kg, Mutamba extract 33-2 G1 1000 mg/kg, mean): −2.63
Weight Gain (week 3, DIO mice, combination (1:1) 2000 mg/kg twice a day, group mean): −3.34
Weight Gain (week 3, DIO mice, combination (5:1) 1200 mg/kg twice a day by gavage, group mean): −3.34
